Reference: paper PMC6273621, “Synthesis and the Biological Activity of Phosphonylated 1,2,3-Triazolenaphthalimide Conjugates” (Molecules, 2016)

Key:
[1] = system: murine leukemia (L1210) cells; assay: Cytostatic activity, L1210 cell proliferation; type: cell-based; details: Mus musculus, L1210, 48 h, read-out: IC50 L1210
Description: (§1) All assays were performed in 96-well microtiter plates. To each well were added (5–7.5) × 10^4 tumor cells and a given amount of the test compound. The cells were allowed to proliferate for 48 h (murine leukemia L1210 cells) or 72 h (human lymphocytic CEM and human cervix carcinoma HeLa cells) at 37 °C in a humidified CO2-controlled atmosphere. At the end of the incubation period, the cells were counted in a Coulter counter.

[2] = system: human T-lymphocyte (CEM) cells; assay: Cytostatic activity, CEM cell proliferation; type: cell-based; details: CCRF-CEM, 72 h, read-out: IC50 CEM
Description: as §1

[3] = system: human cervix carcinoma cells (HeLa); assay: Cytostatic activity, HeLa cell proliferation; type: cell-based; details: 72 h, read-out: IC50 HeLa
Description: as §1

[4] = system: human dermal microvascular endothelial HMEC-1 cells; assay: Cytostatic activity, HMEC-1 cell proliferation; type: cell-based; details: HMEC-1, read-out: IC50 HMEC-1

| SMILES | melting point [°C] | IC50 [1] [µM] | IC50 [2] [µM] | IC50 [3] [µM] | IC50 [4] [µM] |
| --- | --- | --- | --- | --- | --- |
| CCOP(=O)(CC(O)Cn1cc(CN2C(=O)c3cccc4cc(N)cc(c34)C2=O)nn1)OCC (centres unmarked) [Compound 17f, Diethyl 3-{4-[(5-Amino-1,3-dioxo-1H-benzo[de]isoquinolin-2(3H)-yl)methyl]-1H-1,2,3-triazol-1-yl}-2-hydroxypropylphosphonate] | 222 to 224 | > 250 | > 250 | 130 ± 77 |  |
| CCOP(=O)(Cn1cc(CN2C(=O)c3cccc4cc(N)cc(c34)C2=O)nn1)OCC [Compound 17a, Diethyl {4-[(5-Amino-1,3-dioxo-1H-benzo[de]isoquinolin-2(3H)-yl)methyl]-1H-1,2,3-triazol-1-yl}methylphosphonate] |  | 177 ± 76 | 214 ± 5 | 101 ± 78 |  |
| CCOP(=O)(CCCCn1cc(CN2C(=O)c3cccc4cc(N)cc(c34)C2=O)nn1)OCC [Compound 17d, Diethyl 4-{4-[(5-Amino-1,3-dioxo-1H-benzo[de]isoquinolin-2(3H)-yl)methyl]-1H-1,2,3-triazol-1-yl}butylphosphonate] | 218 to 220 | > 250 | > 250 | 116 ± 60 |  |
| CCOP(=O)(CCCn1cc(CN2C(=O)c3cccc4cc(N)cc(c34)C2=O)nn1)OCC [Compound 17c, Diethyl 3-{4-[(5-Amino-1,3-dioxo-1H-benzo[de]isoquinolin-2(3H)-yl)methyl]-1H-1,2,3-triazol-1-yl}propylphosphonate] | 180 to 182 | > 250 | ≥ 250 | ≥ 250 |  |
| CCOP(=O)(CCOCCn1cc(CN2C(=O)c3cccc4cc(N)cc(c34)C2=O)nn1)OCC [Compound 17h, Diethyl 2-(2-{4-[(5-Amino-1,3-dioxo-1H-benzo[de]isoquinolin-2(3H)-yl)methyl]-1H-1,2,3-triazol-1-yl}ethoxy)ethylphosphonate] | 180 to 183 | 142 ± 2 | 109 ± 3 | 66 ± 3 |  |
| CCOP(=O)(CCn1cc(CN2C(=O)c3cccc4cc(N)cc(c34)C2=O)nn1)OCC [Compound 17b, Diethyl 2-{4-[(5-Amino-1,3-dioxo-1H-benzo[de]isoquinolin-2(3H)-yl)methyl]-1H-1,2,3-triazol-1-yl}ethylphosphonate] |  | > 250 | 120 ± 7 | 69 ± 12 |  |
| CCOP(=O)(CNC(=O)Cn1cc(CN2C(=O)c3cccc4cc(N)cc(c34)C2=O)nn1)OCC [Compound 17i, Diethyl 2-{4-[(5-Amino-1,3-dioxo-1H-benzo[de]isoquinolin-2(3H)-yl)methyl]-1H-1,2,3-triazol-1-yl}acetamido-methylphosphonate] | 222 to 224 | > 250 | > 250 | 112 ± 58 |  |
| CCOP(=O)(COCCn1cc(CN2C(=O)c3cccc4c(Br)ccc(c34)C2=O)nn1)OCC [Compound 15g, Diethyl 2-{4-[(6-Bromo-1,3-dioxo-1H-benzo[de]isoquinolin-2(3H)-yl)methyl]-1H-1,2,3-triazol-1-yl}ethoxy-methylphosphonate] |  | 24 ± 3 | 66 ± 20 | 84 ± 16 | 152 ± 1 |
| CCOP(=O)(COCCn1cc(CN2C(=O)c3cccc4cc(N)cc(c34)C2=O)nn1)OCC [Compound 17g, Diethyl 2-{4-[(5-Amino-1,3-dioxo-1H-benzo[de]isoquinolin-2(3H)-yl)methyl]-1H-1,2,3-triazol-1-yl}ethoxy-methylphosphonate] | 221 to 223 | > 250 | > 250 | 97 ± 42 |  |
| CCOP(=O)(OCC)C(O)Cn1cc(CN2C(=O)c3cccc4cc(N)cc(c34)C2=O)nn1 (centres unmarked) [Compound 17e, Diethyl 2-{4-[(5-Amino-1,3-dioxo-1H-benzo[de]isoquinolin-2(3H)-yl)methyl]-1H-1,2,3-triazol-1-yl}-1-hydroxyethylphosphonate] | 170 to 172 | > 250 | > 250 | 72 ± 58 |  |
